In PubChem BioAssay (NCI):
“And” between values parts separate entries of the source, which are not always exact repeats. Equal values may be shown once.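 The compound was tested at five concentrations on cells cultured in 96-well plates, with a 48-hour exposure period. Abbreviation: GI50, concentration required for 50% inhibition of growth. TGI is the concentration that stops growth completely.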

Legend:
Assay in all cases: DTP human tumour cell line panel, 48 h
[1] = test system: SW-620 colon
[2] = test system: HL-60(TB) leukemia
[3] = test system: CAKI-1 renal
[4] = test system: K-562 leukemia
[5] = test system: SN12C renal
[6] = test system: MDA-MB-435
[7] = test system: HCT-15 colon
[8] = test system: ACHN renal
[9] = test system: SK-MEL-5 melanoma
[10] = test system: M14 melanoma

Compound	GI50 [1] [µM]	TGI [1] [µM]	GI50 [2] [µM]	TGI [2] [µM]	GI50 [3] [µM]	TGI [3]	GI50 [4] [µM]	TGI [4] [µM]	GI50 [5] [µM]	TGI [5] [µM]	GI50 [6] [µM]	TGI [6] [µM]	GI50 [7] [µM]	TGI [7] [µM]	GI50 [8] [µM]	TGI [8]	GI50 [9] [µM]	TGI [9]	GI50 [10] [µM]	TGI [10]
N#Cc1ccc(NC(=O)Nc2nc3ccc(OC(F)(F)F)cc3s2)cc1	1.61	12	2.44	21.3	1.59	9.12 µM	0.534	26.1	1.58	8.64	1.42	6.79	1.38	6.45	0.732	7.05 µM	1.15	2.54 µM	2.37	6.53 µM
COC1C(O)CC(OC2CC(OC3CC(O[C@@H]4C(=O)c5c(cc6cc(OC7CC(OC8CC(O)C(O)C(C)O8)C(O)C(C)O7)c(C)c(O)c6c5O)CC4[C@H](OC)[C@@H](O)C(C)=O)OC(C)C3O)OC(C)C2O)OC1C (some centres not stated)	0.0125	> 33.3	0.0236	6.94	0.749	> 33.3 µM	0.0163	> 33.3	0.0192	> 33.3	0.0156	7.07	0.335	> 33.3	0.025		0.00993	0.0392 µM	0.0202	3.91 µM
COc1ccc(-c2cc(-c3ccc(Cl)cc3)nc(SCCCCCCC(=O)NO)n2)cc1	1.43	10.2	1.19	2.8	1.32	7.47 µM	1.72	8.86	1.74	8.85	2.12	11	1.46	7.72	1.11	2.67 µM	1.14	2.52 µM	1.26	4.74 µM
CCOC(=O)C(=O)C(/C(=N/N(C)C)C(=O)Nc1ccc(C)cc1C)c1nc2ccccc2[nH]c1=O (configuration not stated)		> 100		> 100		> 100 µM		> 100		> 100		> 100		> 100		> 100 µM		> 100 µM		> 100 µM
Cc1cc(C)c(O)c(CNCCCNCc2cc(C)cc(C)c2O)c1	3.19	11	2.33	4.75	5.45	18.7 µM	2.11	4.89	5.23	18.8	1.54	2.93	2.01	4.66	3.55	10.8 µM	1.57	2.93 µM	1.8	3.55 µM
O=C1CCC(N2C(=O)c3cccc(NCCOCCOCCNC(=O)c4cc5c(o4)C(=O)c4ccccc4C5=O)c3C2=O)C(=O)N1 (configuration not stated)	1.95	4.64	2.1	6.82	2.91	10.1 µM	2.55	12.7	1.54	2.92	1.23	2.63	4.08	19.2	2.3	6.62 µM	0.787	2.07 µM	1.2	2.6 µM
CN1CCN(Cc2ccc(NC(=O)c3cccc(C#Cc4c(N)ncc5ccc(F)cc45)c3)cc2C(F)(F)F)CC1	0.645	1.39	0.626	1.88	0.727	1.43 µM	0.005	0.674	0.663	1.44	0.763	1.47	0.621	1.41	0.509	1.1 µM	0.896	1.68 µM	0.463	1.24 µM
COc1cc(=O)oc(/C=C/C=C/C=C/C(C)=C\C2(C)OC(C)C(C)(O)C2O)c1C (configuration not stated)		> 100		> 100		> 100 µM		> 100		> 100		> 100		> 100		> 100 µM		> 100 µM		> 100 µM
NC(N)=NC(N)=Nc1ccc(S(N)(=O)=O)cc1		> 100		> 100		> 100 µM		> 100		> 100		> 100		> 100		> 100 µM		> 100 µM		> 100 µM
CC(C)Cc1ccc(C(C)/C=C2\CCC(CN3CCCCC3)C2=O)cc1 (configuration not stated)		13.4		5		20.4 µM		9.19		4.44		28.2		7.29		19.9 µM		27 µM		18.2 µM
CCC1(N)C(=O)OCc2c1cc1n(c2=O)Cc2cc3ccccc3nc2-1 (configuration not stated)	12.9	> 100	4.44		3.26	> 52.2 µM and 45.9 µM	5.36	> 100	6.27	> 100	21.1	> 100	19.7	> 100	2.75	12.2 µM and 21.3 µM	7.17	20.4 µM and > 47.8 µM		54 µM and > 100 µM
CCN(CC)CCC(=O)N1C/C(=C/c2ccccc2)C(=O)/C(=C\c2ccccc2)C1		0.629		1.62		5.08 µM		2.62		3.39		5.5		3.91		7.63 µM		3.98 µM		6.63 µM
